Active and inactive are the calls of the source. No cut-off for these calls is given here.
How the values were obtained:
[1] = In vitro inhibitory activity against yeast […] dehydrogenase; Active; conditions: Saccharomyces cerevisiae
[2] = Inhibitory activity against porcine […] dehydrogenase; Active; conditions: Sus scrofa

Row | Activity [1] | Activity [2] | SMILES
1 | Active | Active | CC(C)(C)OC(=O)N(OC(=O)c1ccccc1)S(=O)(=O)c1ccccc1
2 | – | Active | N#CN(OC(=O)c1ccccc1)C(=O)c1ccccc1
3 | Active | Active | CC(=O)ON(C(=O)OC(C)(C)C)S(=O)(=O)c1ccccc1

— ChEMBL document CHEMBL1125302, “Prodrugs of nitroxyl as inhibitors of aldehyde dehydrogenase” (J Med Chem, 1992)
